Source: patent publication US10668123B2, “Capsicum compositions and uses thereof” (OmniActive Health Technologies Limited, priority 2015, dated 2020)

Test system: 3T3L1 cells
Assay: Lipolysis in 3T3L1 cells, glycerol release as biomarker
Type: cell-based
Conditions: positive control, time and concentration not given
Procedure: Pancreatic lipase activity was measured using 4-methylumbelliferyl oleate (MU Oleate) as a substrate via a fluorescence kinetic assay. 3T3L1 cells were treated with capsicum composition (100 μg/1111) at different time points such as 1 hour (h), 2 h, 4 h and 24 h. […] was used as the positive control. Lipolysis was assessed using glycerol release as a biomarker.
Capsicum composition enhanced the lipolysis after 24 h treatment. The ratio of released glycerol/protein content was 1.59, compared to the positive control:isoproterenol (ratio: 1.60).

Compound: CC(C)NCC(O)c1ccc(O)c(O)c1 (stereo not shown) [Isoproterenol]
- Ratio treated/non treated (lipolysis): 1.60
